# Reference: US6680323B2, “Dihydropyrimidines and uses thereof” (Synaptic Pharmaceutical Corporation, priority 1998, dated 2004)
# Where a name gives a salt, the structure may show the parent alone.
# How the values were obtained:
# human α2a receptor = target: T1, human α2a receptor (Homo sapiens, UniProt P08913); assay: Competition binding ([3H]rauwolscine) at cloned human α2a receptor; settings: transfected LM(tk−) cells, [3H]rauwolscine 0.5 nM; read-out: Binding affinity hα2a
# T1 construct: expressed in transfected cells
# T1 sequence (P08913 1-465): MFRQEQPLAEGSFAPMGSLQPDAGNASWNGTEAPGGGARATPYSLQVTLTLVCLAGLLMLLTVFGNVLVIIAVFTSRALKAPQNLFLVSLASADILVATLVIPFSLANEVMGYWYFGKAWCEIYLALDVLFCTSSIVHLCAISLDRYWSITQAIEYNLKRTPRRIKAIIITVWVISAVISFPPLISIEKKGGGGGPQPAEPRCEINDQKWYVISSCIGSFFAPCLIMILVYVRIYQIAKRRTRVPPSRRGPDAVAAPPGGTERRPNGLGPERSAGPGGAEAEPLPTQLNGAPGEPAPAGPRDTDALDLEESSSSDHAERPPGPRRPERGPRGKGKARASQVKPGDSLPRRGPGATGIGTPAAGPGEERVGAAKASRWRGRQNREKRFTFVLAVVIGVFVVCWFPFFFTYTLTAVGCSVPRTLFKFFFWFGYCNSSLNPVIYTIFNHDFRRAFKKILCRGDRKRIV
# Text: (§1) α2 Human Adrenergic Receptors
# (§2) To determine the potency of α1 antagonists at the α2 receptors, LM(tk−) cell lines stably transfected with the genes encoding the α2a, α2b, and α2c receptors were used. The cell line expressing the α2a receptor is designated L-α2A, and was deposited on Nov. 6, 1992 under ATCC Accession No. CRL 11180. The cell line expressing the α2b receptor is designated L-NGC-α2B, and was deposited on Oct. 25, 1989 under ATCC Accession No. CRL10275. The cell line expressing the α2c receptor is designated L-α2C, and was deposited on Nov. 6, 1992 under ATCC Accession No. CRL-11181. All the cell lines were deposited with the American Type Culture Collection, 12301 Parklawn Drive, Rockville, Md. 20852, U.S.A. under the provisions of the Budapest Treaty for the International Recognition of the Deposit of Microorganisms for the Purposes of Patent Procedure. Cell lysates were prepared as described above (see Radioligand Binding Assays), and suspended in 25 mM glycylglycine buffer (pH 7.6 at room temperature). Equilibrium competition binding assay were performed using [3H]rauwolscine (0.5 nM), and nonspecific binding was determined by incubation with 10 μM phentolamine. The bound radioligand was separated by filtration through GF/B filters using a cell harvester.
# human α2b receptor = target: T2, human α2b receptor (Homo sapiens, UniProt P18089); assay: Competition binding ([3H]rauwolscine) at cloned human α2b receptor; settings: transfected LM(tk−) cells, [3H]rauwolscine 0.5 nM; read-out: Binding affinity hα2b
# T2 construct: expressed in transfected cells
# T2 sequence (P18089 1-450): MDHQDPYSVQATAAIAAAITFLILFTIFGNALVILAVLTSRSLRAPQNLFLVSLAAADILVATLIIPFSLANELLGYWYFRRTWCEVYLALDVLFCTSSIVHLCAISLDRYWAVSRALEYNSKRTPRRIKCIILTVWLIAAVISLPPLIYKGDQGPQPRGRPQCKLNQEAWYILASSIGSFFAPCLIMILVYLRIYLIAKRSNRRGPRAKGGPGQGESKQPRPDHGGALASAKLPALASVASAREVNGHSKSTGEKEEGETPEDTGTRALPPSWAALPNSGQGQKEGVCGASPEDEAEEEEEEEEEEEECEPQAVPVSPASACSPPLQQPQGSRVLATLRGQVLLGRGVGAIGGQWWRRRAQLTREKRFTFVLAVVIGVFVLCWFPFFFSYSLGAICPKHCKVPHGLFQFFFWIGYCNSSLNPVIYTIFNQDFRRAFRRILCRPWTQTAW
# Text: as §1, §2
structure (smiles),measurement,setting,value
"O=C1OCC2=C1C(c1ccc(F)c(F)c1)N(C(=O)NCCCN1CCC(c3ccccn3)CC1)C(=O)N2 (single isomer, unassigned; (+)) [Compound 8, (+)-1-3-{[4-(3,4-Difluorophenyl)-2,5-dioxo-1,2,5,7-tetrahydro-4H-furo[3,4-d]-pyrimidine-3-carbonyl]amino}-propyl-4-(2-pyridyl)-piperidine]",Ki,human α2a receptor,1.5 µM
same,Ki,human α2b receptor,0.97 µM
"COCC1=C(C(=O)OC)[C@H](c2ccc(F)c(F)c2)N(C(=O)NCCCO)C(=O)N1 [Compound 1, (+)-1,2,3,6-Tetrahydro-1-(3-hydroxypropyl)carboxamido-5-methoxycarbonyl-4-methoxymethyl-6-(3,4-difluorophenyl)-2-oxo-pyrimidine]",Ki,human α2a receptor,40 µM
same,Ki,human α2b receptor,26 µM
"COCC1=C(C(=O)OC)[C@H](c2ccc(F)c(F)c2)N(C(=O)NCCCN2CCC(c3cccc[n+]3[O-])CC2)C(=O)N1 [Compound 2, (+)-1,2,3,6-Tetrahydro-1-{N-[4-(2-pyridyl)piperidin-1-yl]propyl}carboxamido-5-methoxycarbonyl-4-methoxymethyl-6-(3,4-difluorophenyl)-2-oxopyrimidine-pyridine-N-oxide hydrochloride]",Ki,human α2a receptor,4.2 µM
same,Ki,human α2b receptor,8.7 µM
"COCC1=C(C(=O)OC)[C@H](c2ccc(F)c(F)c2)N(C(=O)NCCC[n+]2ccc(-c3ccccn3)cc2)C(=O)N1 [Compound 3, 4-(2-Pyridyl)-1-{3-[5-carboxymethyl-4-methoxymethyl-2-oxo-6(S)-(3,4-difluorphenyl)-1,2,3,6-tetrahydropyrimidin-1-yl]carboxyaminopropyl}pyridinium chloride]",Ki,human α2a receptor,5.62 µM
same,Ki,human α2b receptor,9.66 µM
"COC(=O)C1=C(CO)NC(=O)N(C(=O)NCCCN2CCC(c3ccccn3)CC2)[C@H]1c1ccc(F)c(F)c1 [Compound 7, (+)-1,2,3,6-Tetrahydro-1-{N-[4-(2-pyridyl)piperidin-1-yl]propyl}carboxamido-5-methoxycarbonyl-4-hydroxymethyl-6-(3,4-difluorophenyl)-2-oxopyrimidine]",Ki,human α2a receptor,0.38 µM
same,Ki,human α2b receptor,1.2 µM
O=C(O)CCNC(=O)N1C(=O)NC2=C(C(=O)OC2)[C@@H]1c1ccc(F)c(F)c1 [Compound 9],Ki,human α2a receptor,> 50 µM
same,Ki,human α2b receptor,> 50 µM
